Consider 9 compounds from PMC11268729 (Journal of hepatology, 2023).

Data set [1] has as its system PaDLOCs. Kind of data set: PaDLOC confocal imaging. Conditions: for UMAP morphological clustering: PaDLOCs, CellProfiler cell-level features; for morphological deviation: monotherapy 500 nM. It counts as cell-based, human.
The next data set relates to dispersed HLOs. Briefly: Dispersed HLOs in 384-well plates, cell viability counts by high-content imaging. It is filed as cell-based, human. Conditions: for cytotoxicity: monotherapies up to concentration of 100 μM, 120 hrs.
The subject of the next data set is patients. Conditions: monotherapy, two clinical trials for HBV; cited from earlier work.
In data set [2] the test system is PaDLOCs. Briefly: PaDLOC. Conditions: for ALT or AST release: monotherapy 500 nM; for albumin production: across 7 days. It counts as cell-based, human.
The test system of the next data set is 72.3-derived HLOs. Briefly: Morphological cell profiling. It is filed as cell-based, human. Conditions: for phenotypic cluster (UMAP/HDBScan): cells treated at respective IC50, 72.3-derived HLOs.
Data set [3] relates to PaDLOCs. Kind of data set: scRNA-seq differential expression in hepatocytes of drug-treated PaDLOCs. It is filed as cell-based, human. Conditions: fialuridine 10 μM, tenofovir 500 nM; for KCNQ10T1 expression / RPS10 expression: compared to control; for DGAT1 expression: tenofovir-inarigivir 250 + 250 nM.
The conditions of data set [4]: in vivo; cited from earlier work.
Data set [5] relates to PaDLOCs. Kind of data set: Metabolic turnover of CYP substrates in PaDLOCs. Conditions: PaDLOCs vs plate-cultured intact HLOs; slightly lower rates than PHHs.
Another data set has as its system PHH PaDLOCs. Kind of data set: PHH liver-chip ALT/AST release and albumin production. It is filed as cell-based, human. Conditions: PHH on chip; APAP and FIAU.
The mark [6] stands for this setting: single agents 500 nM, combination 250 + 250 nM.

Entries after “also recorded” stand apart in the source; their conditions may differ.

As for `CO[C@@H]1[C@H](OP(=O)(OC[C@H]2O[C@@H](n3cnc4c(N)ncnc43)C[C@@H]2O)SCOC(=O)OC(C)C)[C@@H](CO)O[C@H]1n1ccc(=O)[nH]c1=O` (stereo partly shown) [inarigivir soproxil], in the data set on PaDLOCs [1], the UMAP morphological clustering entry is “clustered with DMSO control” and the morphological deviation result is reported as “no morphological deviation from DMSO-treated control”. Also, the cytotoxicity entry in the data set with dispersed HLOs was “negligible cytotoxicity”. Also, the “toxicity in clinical trials” value with patients is “no clear signs of toxicity”. The “ALT or AST release” value in the data set on PaDLOCs [2] is “did not increase ALT or AST release”. Besides, the albumin production entry in the data set on PaDLOCs [2] (setting [6]) is “no effect was observed”.

As for `CO[C@H]1/C=C/O[C@@]2(C)Oc3c(C)c(O)c4c(O)c(c(/C=N/N5CCN(C)CC5)c(O)c4c3C2=O)NC(=O)/C(C)=C\C=C\[C@H](C)[C@H](O)[C@@H](C)[C@@H](O)[C@@H](C)[C@H](OC(C)=O)[C@@H]1C` [rifampin], the “phenotypic cluster (UMAP/HDBScan)” value in the data set on 72.3-derived HLOs is “Cluster γ”.

In the case of `Cc1ccnc2c1NC(=O)c1cccnc1N2C1CC1` [nevirapine], the “IC50 relative to reported Cmax in patients” value with dispersed HLOs (72.3 derived HLOs, Cmax ref 53) is “over double that of reported Cmax”. The “phenotypic cluster (UMAP/HDBScan)” value with 72.3-derived HLOs was “Cluster γ”.

On to `C[C@H](Cn1cnc2c(N)ncnc21)OCP(=O)(O)O` [tenofovir], for which, in the data set with PaDLOCs [3], the KCNQ10T1 expression result is recorded as “overexpression”, the RPS10 expression result is recorded as “suppressed expression”, the GSTP1 expression entry is reported as “decreased expression” and the DGAT1 expression entry is recorded as “downregulated”. Also, in the data set with PaDLOCs [1], the UMAP morphological clustering entry was “clustered with DMSO control” and the morphological deviation entry was “no morphological deviation from DMSO-treated control”. Besides, the cytotoxicity result with dispersed HLOs was “negligible cytotoxicity”. Further, the Cmax in data set [4] was roughly 500 nM. Moreover, the “ALT or AST release” value in the data set with PaDLOCs [2] was “did not increase ALT or AST release”. Also, the albumin production result in the data set with PaDLOCs [2] (setting [6]) is given as “no effect was observed”.

On to `Oc1ncnc2[nH]ncc12` [allopurinol], for which the “phenotypic cluster (UMAP/HDBScan)” value in the data set on 72.3-derived HLOs is “Cluster α; also recorded: Cluster γ”.

Consider `O=P1(N(CCCl)CCCl)NCCCO1` (stereo not shown) [cyclophosphamide], for which, in the data set on PaDLOCs [5], the metabolic turnover rate entry was “increased rates compared to plate-cultured intact HLOs”.

Consider `Nc1nc2nc[nH]c2c(=S)[nH]1` [thioguanine], for which the “phenotypic cluster (UMAP/HDBScan)” value with 72.3-derived HLOs is recorded as “Cluster α”.

`CC(=O)Nc1ccc(O)cc1` [APAP, acetaminophen]: the UMAP morphological clustering entry with PaDLOCs [1] is “unique cluster”. Moreover, in the data set on PaDLOCs [5], the metabolic turnover rate entry is “increased rates compared to plate-cultured intact HLOs”. The albumin production entry in the data set on PaDLOCs [2] (APAP 100 μM, FIAU 10 μM) is on record as “diminished”. Moreover, the “ALT/AST release and reduced albumin production” value in the data set on PHH PaDLOCs is “not significant”.

For `O=c1[nH]c(=O)n([C@@H]2O[C@H](CO)[C@@H](O)[C@@H]2F)cc1I` [FIAU, fialuridine], in the data set on PaDLOCs [3], the KCNQ10T1 expression result is on record as “overexpression”, the RPS10 expression entry is recorded as “suppressed expression”, the GSTP1 expression entry is given as “decreased expression” and the DGAT1 expression result is given as “downregulated”. In addition, in the data set with PaDLOCs [1] (APAP 100 μM, FIAU 10 μM, day 7 of treatment), the “confocal phenotype (CellMask, lipid droplets)” value was “high lipid content and a reduction of CellMask staining”. For the same compound, the “multidimensional perturbation of cells” value in the data set on 72.3-derived HLOs (sub-cytotoxic concentrations, Fig. S5 B-C) was “diminished mitochondrial mass and lipid accumulation”. For the same compound, the albumin production result in the data set with PaDLOCs [2] (APAP 100 μM, FIAU 10 μM) is “diminished”. Moreover, in the data set with PHH PaDLOCs, the “ALT/AST release and reduced albumin production” value is listed as “not significant”.

By Cmax is commonly meant the highest concentration seen after dosing.
